The test system of data set [1] is carrageenan thermal hyperalgesia response. The data set is described as follows: Thermal hyperalgesia from intraplantar carrageenan in rats (Paw Withdrawal Latency). It counts as in vivo. The conditions noted are these: rat; for % Inhibition (1 hr): DOSE (PO) 10, 1 hour after drug administration; for % Inhibition (2 hr): DOSE (PO) 10, 2 hours after drug administration; for % Inhibition (3 hr): DOSE (PO) 10, 3 hours after drug administration. The procedure:
The analgesic activity of the compounds of the present invention was assessed by a test with rats. […] The rats were placed on a glass plate with illumination from a halogen lamp placed directly under the injected paw. The time (in seconds) from beginning illumination until the hindlimb was withdrawn from the glass was measured and scored as Paw Withdrawal Latency (PWL). Drug substances were given by oral gavage injection 21⁄2 hours after carrageenan injection to the footpad. PWL was measured prior to carrageenan injection, just prior to drug injection, and 1, 2 (and sometimes 3) hours after drug injection. Carrageenan (a polysaccharide extracted from seaweed) causes a sterile inflammation when injected under the skin. Injection into the rat footpad causes little or no spontaneous pain-related behavior but induces hyperalgesia (pain-related behavioral responses of greater intensity than expected) to peripheral thermal or mechanical stimuli. This hyperalgesia is maximal 2 to 3 hours after injection. Treatment of rats with various analgesic drugs reduces hyperalgesia measured in this way and is a conventional test for detection of analgesic activity in rats. […] Inhibition of the carrageenan thermal hyperalgesia response was determined by the difference between reduced PWL prior to drug and subsequent to drug treatment, and was expressed as percent inhibition of the response. […] Inhibition indicates and analgesic effect.
In general terms: The carrageenan paw model is a standard test of acute inflammation.

Data set [2] deals with MEK. The data set is described as follows: Cellular Assay for Measuring MEK Inhibition (inhibition of ERK phosphorylation in C26 cells, Western blot). It counts as cell-based, murine. The conditions noted are these: inhibition of ERK phosphorylation in murine colon 26 (C26) carcinoma cells; determined graphically from dose response curve. The method in brief:
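Exponentially growing murine colon 26 (C26) carcinoma cells treated with varying compound concentrations at 37° C, then lysed. Western blot with antibody to dually phosphorylated ERK1/ERK2; blots stripped and re-probed for total ERK1/ERK2.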
In general terms: Immunoblotting shows a protein as a band on a membrane.

One may read the melting point as the temperature, or range, at which the solid turns liquid. By IC50 is commonly meant the concentration that inhibits the measured activity by half. `O=C(NOCC(O)CO)c1cc(Cl)c(F)c(F)c1Nc1ccc(I)cc1F` (centres unmarked) [Example 41, 5-Chloro-N-(2,3-dihydroxy-propoxy)-3,4-difluoro-2-(2-fluoro-4-iodo-phenylamino)-benzamide] returned a melting point of 152 to 155 °C. Moreover, in data set [1], the “% Inhibition (1 hr)” value came out at 26.7% and the “% Inhibition (2 hr)” value stood at 61.0%. The IC50 in data set [2] was determined as 0.73 nM.

As for `Cc1cc(I)ccc1Nc1c(C(=O)NOCCCO)cc(Cl)c(F)c1F` [Example 29, 5-Chloro-3,4-difluoro-N-(3-hydroxy-propoxy)-2-(4-iodo-2-methyl-phenylamino)-benzamide], the melting point was 155.2 to 156.6 °C. The same molecule had an IC50 in data set [2] of 47 nM.

`CC(C)(O)CONC(=O)c1ccc(F)c(F)c1Nc1ccc(I)cc1Cl` [Example 64, 2-(2-Chloro-4-iodo-phenylamino)-3,4-difluoro-N-(2-hydroxy-2-methyl-propoxy)-benzamide] had a melting point of 140 to 153 °C. Further, in data set [2], the IC50 came to 13 nM.

`O=C(NOCC(O)C(F)(F)F)c1cc(Br)c(F)c(F)c1Nc1ccc(I)cc1Cl` (centres unmarked) [Example 73, 5-Bromo-2-(2-chloro-4-iodo-phenylamino)-3,4-difluoro-N-(3,3,3-trifluoro-2-hydroxy-propoxy)-benzamide] registered a melting point of 186.9 to 187.3 °C. Besides, inhibition in data set [2] was half-maximal at 80 nM (IC50).

For the molecule `O=C(NOCC(O)CO)c1cc(Cl)c(F)c(F)c1Nc1ccc(I)cc1Cl` (centres unmarked) [Example 34], the melting point lay within 152 to 154 °C. Moreover, in data set [1], the “% Inhibition (1 hr)” value is given as 39.6% and the “% Inhibition (2 hr)” value is 61.5%. In addition, in data set [2], the concentration for half-maximal inhibition (IC50) was determined as 1 nM.

`O=C(NOC[C@@H]1C[C@H]1CO)c1ccc(F)c(F)c1Nc1ccc(I)cc1F` (relative stereo) [Example 74, 3,4-Difluoro-2-(2-fluoro-4-iodo-phenylamino)-N-[trans-(2-hydroxymethyl-cyclopropylmethoxy)]-benzamide]: the melting point was 128.5 to 128.7 °C. This molecule yielded a half-inhibitory concentration (IC50) in data set [2] of 18 nM.

On to `O=C(NOCCC(O)CO)c1cc(Cl)c(F)c(F)c1Nc1ccc(I)cc1Cl` (centres unmarked) [Example 37, 5-Chloro-2-(2-chloro-4-iodo-phenylamino)-N-(3,4-dihydroxy-butoxy)-3,4-difluoro-benzamide], for which the melting point fell in the range of 146 to 148 °C. The molecule also returned an IC50 in data set [2] of 30 nM.

As for `CC(C)(O)C(O)CONC(=O)c1ccc(F)c(F)c1Nc1ccc(I)cc1F` (centres unmarked) [Example 76, N-(2,3-Dihydroxy-3-methyl-butoxy)-3,4-difluoro-2-(2-fluoro-4-iodo-phenylamino)-benzamide], the melting point is 180 to 183 °C. In addition, the IC50 in data set [2] was 6 nM.

With `CNCCONC(=O)c1ccc(F)c(F)c1Nc1ccc(I)cc1C` [Example 78, 3,4-Difluoro-2-(4-iodo-2-methyl-phenylamino)-N-(2-methylamino-ethoxy)-benzamide], the melting point is 183 to 185 °C (dec.). In data set [2], this molecule had an IC50 of 230 nM.

For `O=C(NOC[C@@H]1C[C@H]1CO)c1cc(Cl)c(F)c(F)c1Nc1ccc(I)cc1F` (relative stereo) [Example 75, 5-Chloro-3,4-difluoro-2-(2-fluoro-4-iodo-phenylamino)-N-[trans-(2-hydroxymethyl-cyclopropylmethoxy)]-benzamide], the melting point lay within 152.5 to 153.1 °C. In data set [2], this molecule displayed an IC50 of 42 nM.

As to `O=C(NOCCO)c1cc(Cl)c(F)c(F)c1Nc1ccc(I)cc1Cl` [Example 20, 5-Chloro-2-(2-chloro-4-iodo-phenylamino)-3,4-difluoro-N-(2-hydroxy-ethoxy)-benzamide], the melting point was in the range of 178 to 181 °C. Also, half-maximal inhibition in data set [2] (IC50) required 3 nM.

For `O=C(NOCCO)c1cc(Br)c(F)c(F)c1Nc1ccc(I)cc1F` [Example 11, 5-Bromo-3,4-difluoro-2-(2-fluoro-4-iodo-phenylamino)-N-(2-hydroxy-ethoxy)-benzamide], the melting point was in the range of 189 to 190 °C. For the same molecule, half-maximal inhibition in data set [2] (IC50) was put at 2 nM.

Molecule `O=C(NOC[C@@H](O)CO)c1cc(Cl)c(F)c(F)c1Nc1ccc(I)cc1F` [Example 54] displayed a melting point of 157 to 158 °C. Moreover, in data set [1], the “% Inhibition (1 hr)” value worked out at 49%, the “% Inhibition (2 hr)” value is reported as 52.9% and the “% Inhibition (3 hr)” value is 29.6%. For the same molecule, the IC50 in data set [2] is 1.2 nM.

The molecule `O=C(NOCCO)c1ccc(F)c(F)c1Nc1ccc(F)cc1F` [Example 27, 2-(2,4-Difluoro-phenylamino)-3,4-difluoro-N-(2-hydroxy-ethoxy)-benzamide] yielded a melting point of 141.1 to 141.6 °C. This molecule had an IC50 in data set [2] of 120 nM.

For the molecule `O=C(NOCC1(CO)CC1)c1cc(Br)c(F)c(F)c1Nc1ccc(I)cc1Cl` [Example 71, 5-Bromo-2-(2-chloro-4-iodo-phenylamino)-3,4-difluoro-N-(1-hydroxymethyl-cyclopropylmethoxy)-benzamide], the melting point was in the range of 152.6 to 153.9 °C. Further, the IC50 in data set [2] amounted to 120 nM.

`O=C(NOCCO)c1cc(Br)c(F)cc1Nc1ccc(I)cc1F` [Example 19] returned a melting point of 173 to 175 °C. The molecule further came in with an IC50 in data set [2] of 1 nM.

For `CC(C)(CO)ONC(=O)c1cc(Cl)c(F)c(F)c1Nc1ccc(I)cc1F` [Example 66, 5-Chloro-3,4-difluoro-2-(2-fluoro-4-iodo-phenylamino)-N-(2-hydroxy-1,1-dimethyl-ethoxy)-benzamide], the melting point is 178 to 180 °C. Also, the midpoint of inhibition in data set [2], the IC50, lay at 2 nM.

`O=C(NOCCO)c1ccc(F)c(F)c1Nc1ccccc1F` [Example 25, 3,4-Difluoro-2-(2-fluoro-phenylamino)-N-(2-hydroxy-ethoxy)-benzamide] yielded a melting point of 129.6 to 130.4 °C. Moreover, the IC50 in data set [2] was found to be 52 nM.

Regarding `Cc1cc(I)ccc1Nc1cc(F)c(F)cc1C(=O)NOCCO` [Example 12, 4,5-Difluoro-N-(2-hydroxy-ethoxy)-2-(4-iodo-2-methyl-phenylamino)-benzamide], the melting point was 151.2 to 152.5 °C. In data set [2], this molecule had an IC50 of 22 nM.

The molecule `O=C(NOCCO)c1cc(F)c(F)c(F)c1Nc1ccc(I)cc1F` [Example 21, 3,4,5-Trifluoro-2-(2-fluoro-4-iodo-phenylamino)-N-(2-hydroxy-ethoxy)-benzamide] showed a melting point of 185 to 187 °C. Also, the IC50 in data set [2] is 1.8 nM.

`O=C(NOCCO)c1cc(F)c(F)c(F)c1Nc1ccc(I)cc1Cl` [Example 6, 2-(2-Chloro-4-iodo-phenylamino)-3,4,5-trifluoro-N-(2-hydroxy-ethoxy)-benzamide] registered a melting point of 183 to 184.5 °C. In addition, half-maximal inhibition in data set [2] (IC50) required 5 nM.

Molecule `O=C(NOC[C@@H](O)CO)c1cc(Cl)c(F)c(F)c1Nc1ccc(I)cc1Cl` [Example 52, 5-Chloro-2-(2-chloro-4-iodo-phenylamino)-N-[(S)-2,3-dihydroxy-propoxy]-3,4-difluoro-benzamide] yielded a melting point of 153 to 154 °C. Further, 7.8 nM corresponded to half-maximal inhibition in data set [2] (IC50).

Take `O=C(NOCC(O)CO)c1ccc(F)c(F)c1Nc1ccc(Br)cc1F` (centres unmarked) [Example 44]: the melting point is 110 to 117 °C (dec.). Also, the IC50 in data set [2] came out at 3 nM.

On to `O=C(NOC[C@H](O)CO)c1ccc(F)c(F)c1Nc1ccc(Br)cc1F` [Example 55, 2-(4-Bromo-2-fluoro-phenylamino)-N-((R)-2,3-dihydroxy-propoxy)-3,4-difluoro-benzamide], for which the melting point came to 52 °C. In data set [1], the “% Inhibition (1 hr)” value worked out at 36.8%, the “% Inhibition (2 hr)” value worked out at 60% and the “% Inhibition (3 hr)” value was found to be 22%. This molecule displayed a half-inhibitory concentration (IC50) in data set [2] of 4.5 nM.

The molecule `O=C(NOC(CO)CO)c1cc(Cl)c(F)c(F)c1Nc1ccc(I)cc1F` [Example 48, 5-Chloro-3,4-difluoro-2-(2-fluoro-4-iodo-phenylamino)-N-(2-hydroxy-1-hydroxymethyl-ethoxy)-benzamide] showed a melting point of 173 to 175 °C. The molecule further yielded an IC50 in data set [2] of 1.6 nM.

`CC(C)(O)CONC(=O)c1ccc(F)c(F)c1Nc1ccc(I)cc1F` [Example 67, 3,4-Difluoro-2-(2-fluoro-4-iodo-phenylamino)-N-(2-hydroxy-2-methyl-propoxy)-benzamide] registered a melting point of 156.7 to 156.9 °C. In addition, the IC50 in data set [2] is 6 nM.

In turn, `CC(C)(CO)ONC(=O)c1cc(Br)c(F)c(F)c1Nc1ccc(I)cc1Cl` [Example 62, 5-Bromo-2-(2-chloro-4-iodo-phenylamino)-3,4-difluoro-N-(2-hydroxy-1,1-dimethyl-ethoxy)-benzamide] displayed a melting point of 179 to 181 °C. Besides, in data set [2], the half-maximal inhibitory concentration (IC50) turned out to be 18 nM.

The molecule `O=C(NOCC(O)CO)c1ccc(F)cc1Nc1ccc(I)cc1F` (centres unmarked) [Example 42, N-(2,3-Dihydroxy-propoxy)-4-fluoro-2-(2-fluoro-4-iodo-phenylamino)-benzamide] returned a melting point of 173 to 175 °C. This molecule also gave an IC50 in data set [2] of 2.7 nM.

On to `O=C(NOC[C@H](O)CO)c1cc(Cl)c(F)c(F)c1Nc1ccc(I)cc1Cl` [Example 51, 5-Chloro-2-(2-chloro-4-iodo-phenylamino)-N-[(R)-2,3-dihydroxy-propoxy]-3,4-difluoro-benzamide], for which the melting point lay within 155 to 156 °C. In data set [2], this molecule had an IC50 of 3.8 nM.

(Values after US6960614B2, “Oxygenated esters of 4-lodo phenylamino benzhydroxamic acids” (Warner-Lambert Company, priority 2000, dated 2005).)
